Here are results for 5 compounds from US7321046B2, “Analogs of dictyostatin, intermediates therefor and methods of synthesis thereof” (University of Pittsburgh, priority 2002, dated 2008).

The assay relates to HeLa cells. Briefly: Multiparameter fluorescence high information content analysis of cellular effects. As to conditions: 24 h treatment; for Minimum detectable cellular change, Nuclear condensation: Hoechst 33342. Further details: unit not given here. It counts as cell-based. On the procedure: HeLa cells were plated on collagen-coated 384-well microtiter plates, allowed to attach, then treated for 24 h with test agents. Test agent concentrations began at 1 μM, and two-fold dilutions were made to levels below 1 nM. After the treatment period, the cells were fixed with formalin and their chromatin stained with Hoechst 33342. Cells were permeabilized and treated with primary antibodies for α-tubulin and phosphohistone H3, and then with fluorophore-labeled secondary antibodies. The three fluorescent channels were then examined on an ArrayScan II, which gives quantitative pixel distribution and density information in each channel on a per cell basis.
HeLa cells growing at log phase were trypsinized and plated in 40 μL at a density of 7,000-8,000 cells per well in calf skin collagen I-coated 384-well plates (Falcon #3962; Fisher Scientific). Cells were exposed to test agents or 0.5% DMSO within 2-8 h of plating. Concentrated DMSO stock solutions of all test agents were diluted into solutions of HBSS medium plus 10% FBS and added to the microplate wells (10 μL per well), using an automated liquid handling system (Biomek® 2000; Beckman-Coulter, Inc.) to provide a serial 2-fold dilution of each test agent. The cells were incubated in the presence of test agents for 24 h. At the end of the incubation, the medium was removed and replaced with HBSS containing 4% formaldehyde and 10 μg/mL Hoechst 33342 (25 μL/well) to fix the cells and fluorescently label their chromatin. After incubation at room temperature for 20-30 min, the solution was removed from each well and replaced with HBSS (100 μL/well). Further reagent additions were made to the microplates using the Biomek 2000. After removing the HBSS from each well, cells were permeabilized for 5 min at room temperature with 0.5% (w/w) Triton X-100 in HBSS (10 μL/well). This step extracts a fraction of the soluble cellular components, including soluble tubulin. The wells were washed with HBSS (100 μL/well), followed by addition of a primary antibody solution containing mouse anti-α-tubulin (1:3000) and rabbit anti-phosphohistone H3 (1:500) in HBSS (10 μL/well). After 1 h at room temperature, the wells were washed with HBSS as above, followed by the addition of a secondary antibody solution containing fluorescein-5-isothiocyanate (FITC)-labeled donkey anti-mouse (1:300) and Cy3-labeled donkey anti-rabbit (1:300) antibodies diluted in HBSS (10 μL/well). After 1 h at room temperature, the wells were washed as above, and HBSS was added (100 μL/well). The plates were placed in an ArrayScan® HCS Reader with the Target Activation BioApplication Software coupled to Cellomics® Store and the vHCS™ Discovery Toolbox (Cellomics, Inc.) to analyze images. Briefly, the instrument was used to scan multiple optical fields, each with multiparameter fluorescence, within a subset of the wells of the 384-well microplate. The BioApplication software produced multiple numerical feature values, such as subcellular object intensities, shapes, and location for each cell within an optical field. […] A nuclear mask was generated from Hoechst 33342-stained nuclei, and object identification thresholds and shape parameters were set such that the algorithm identified over 90% of the nuclei in each field. Objects that touched each other or the edge of the image were excluded from the analysis. Tubulin mass was defined as the average green (FITC) pixel intensity in an area defined by the Hoechst-defined nuclear mask. This cytoplasmic area around the nucleus contains cytoskeletal components is a region from which sensitive measurements of cytoplasmic characteristics can be made.

Consider `C=CC=CC(C)C1OC(=O)C=CC=CC(C)C(O)CC(O)C=CC(C)C(O)C(C)CCCCC(O)C1C` [Compound 79, (8S,10S,14R,20R)-Tetrahydroxy-(7R,13S,15S,21S)-tetramethyl-(22S)-((1S)-methylpenta-2,4-dienyl)-oxacyclodocosa-3,5,11-trien-2-one], for which the “Minimum detectable cellular change, Phosphohistone H3” value was 34.4 ± 10.5 (4); the “Minimum detectable cellular change, Tubulin polymer intensity” value is given as 26.9 ± 2.9 (4); the “Minimum detectable cellular change, Nuclear condensation” value is listed as 71.5 ± 18.0 (4).
Regarding `C=C/C=C\[C@H](C)[C@@H]1OC(=O)/C=C\C=C\[C@@H](C)[C@@H](O)C[C@H](O)/C=C\[C@H](C)[C@H](O)[C@@H](C)C[C@@H](C)CC[C@@H](O)[C@@H]1C` [dictyostatin-1, (8S,10S,14R,20R)-Tetrahydroxy-(7R,13S,15S,17S,21S)-pentamethyl-(22S)-((1S)-methylpenta-2,4-dienyl)oxacyclodocosa-3,5,11-trien-2-one, reference compound], the “Minimum detectable cellular change, Phosphohistone H3” value is recorded as 9.6 ± 2.4 (4); the “Minimum detectable cellular change, Tubulin polymer intensity” value is 7.4 ± 2.5 (4); the “Minimum detectable cellular change, Nuclear condensation” value is reported as 32.7 ± 11.7 (3).
For the compound `C=C/C=C\[C@H](C)[C@H](OC(N)=O)[C@@H](C)[C@H](O)[C@@H](C)C/C(C)=C\[C@H](C)[C@@H](O)[C@@H](C)/C=C\[C@@H](O)C[C@@H]1OC(=O)[C@H](C)[C@@H](O)[C@H]1C` [discodermolide, reference compound], the “Minimum detectable cellular change, Phosphohistone H3” value is listed as 38.4 ± 21.9 (2); the “Minimum detectable cellular change, Tubulin polymer intensity” value is 64.6 ± 0.0 (2); the “Minimum detectable cellular change, Nuclear condensation” value was 62.5 (1).
Take `C=CC=CC(C)C1OC(=O)C=CC=CC(C)C(O)CC(O)C=CC(C)C(O)C(C)CC(C)CCC(O)C1C` [Compound 59, (8S,10S,14R,20S)-Tetrahydroxy-(7R,13S,15S,17S,21s)-pentamethyl-(22S)-((1S)-methylpenta-2,4-dienyl)-oxacyclodocosa-3,5,11-trien-2-one]: the “Minimum detectable cellular change, Phosphohistone H3” value is recorded as 261 ± 91 (4); the “Minimum detectable cellular change, Tubulin polymer intensity” value was 284 ± 108 (4); the “Minimum detectable cellular change, Nuclear condensation” value was 363 ± 146 (2).
In the case of `C=C/C=C\[C@H](C)[C@H](O)[C@@H](C)[C@H](O)CC[C@H](C)C[C@H](C)[C@@H](O)[C@@H](C)/C=C\[C@@H](O)C[C@H](O)[C@H](C)/C=C/C=C\C(=O)OC` [Compound 50, (2Z,4E,6R,7S,9S,10Z,12S,13R,14S,16S,19R,20S,21S,22S,23Z)-Methyl-7,9,13,19,21-penta-hydroxy-6,12,14,16,20,22-hexamethylhexacosa-2,4,10,23,25-pentaenoate], the “Minimum detectable cellular change, Phosphohistone H3” value is on record as 149 ± 23.6 (4); the “Minimum detectable cellular change, Tubulin polymer intensity” value was 219 ± 36 (4); the “Minimum detectable cellular change, Nuclear condensation” value is 479 ± 182 (4).
